Test results: patent publication US12448655B2, “Antibiotic susceptibility of microorganisms and related methods and systems” (CALIFORNIA INSTITUTE OF TECHNOLOGY, priority 2017, dated 2025)

Key:
Neisseria gonorrhoeae = assay: AST by inaccessible DNA, 2 incubation steps (media; TRIS pH 8.5 enhancing buffer), qPCR (Example 3); type: cell-based; conditions: 30 min ABX exposure then 20 min TRIS pH 8.5 ± 1% Triton X-100
Description: Antibiotic susceptibility test was performed with methods herein described comprising 2 sequential incubation steps, and in particular • a primary incubation in which a sample is contacted with media, antibiotic (or water in untreated sample), and a nuclease (such as DNaseI), and optionally an enhancer (such as 1% Triton X-100); and • a secondary incubation in which a cell suspension from primary incubation is contacted with enhancers such as 50 mM TRIS buffer at pH 8.5 and/or 1% Triton X-100, possibly using dilution of the cell suspension from the antibiotic exposure by 90-95% (such as 50 μL into 450 μL, 25 μL into 475 μL) removing most antibiotic, culture media, and other components from the primary incubation for the enhancer condition.
The samples were mixed before transferring 25 μL or 50 μL of the sample to the prepared secondary incubation (enhancer) tubes. The charts in step 1 were followed to add the appropriate volume of cells to each tube. Mix the tubes and proceed to step 9 immediately
Extraction was performed following the “DEB Extraction” description in the general methods using Eppendorf tubes. […]
Detection of DNA was performed following the “qPCR” description in the general methods. Quantify all DEB-extracted DNA using the Primer mix=(10 μM forward and reverse) targeting N. gonorrhoeae porA gene. […]

Ng isolates = assay: nuc-aAST time-course without enhancing step (Example 32); type: cell-based, Neisseria gonorrhoeae; conditions: two PEN-S and two PEN-R Ng isolates; DNase I present; no enhancing step
Description: nuc-aAST time-course without enhancing step. Working cultures of Ng isolates were prepared as described in “Ng culture preparation.” Incubation at 37° C. was performed in 100 μL reaction volumes in PCR tube strips on a BioRad C1000 Thermal Cycler. Treated samples consisted of 77.5 μL MHB, 2.5 μL NaHCO3 (200 mM), 5 μL DNase I (2 U/μL), 5 μL PEN (20 μg/mL), and 10 μL working Ng isolate culture. PEN was replaced with NF—H2O in control samples. A 10 μL aliquot of each sample was extracted at 15, 30, 45, 60, 90, and 120 min and diluted 10× in QuickExtract DNA Extraction Solution (Lucigen, Middleton, WI, USA), then heated for 6 min at 65° C. followed by 4 min at 98° C. on a BioRad C1000 Thermal Cycler. All sample handling following antibiotic exposure was performed using a multichannel pipette; qPCR and calculation of % accessibility were performed as described above.
β-lactams should primarily affect peptidoglycan, and should not have a major impact on the outer membrane, which serves as a structural element in Gram-negative bacteria. Therefore, it is expected the primary mechanism behind any increase in accessibility to be cell lysis as a result of exposure to β-lactams, leading to release of genomic DNA to the extracellular environment containing DNase. […]

penicillin
fold change (1/FC) of DNA between 30 and 50 minute measurements (Neisseria gonorrhoeae; resistant isolate (ng_44)): approximately 1.5 | fold change (1/FC) of DNA between 30 and 50 minute measurements (Neisseria gonorrhoeae; susceptible-treated samples (ng_17)): > 5 | exposure time at which percentage accessibility differed significantly between susceptible and resistant isolates (Ng isolates): 90 min
